Earlier results as cited in PMC6151961 (Journal of Enzyme Inhibition and Medicinal Chemistry, 2018).
Where two headings read alike, the source gives them in different places.

Target: CA IX (Homo sapiens, UniProt Q16790)
Details: cited from earlier work
[1] = library compounds (IDs A…, B…), observed Ki towards CA IX, ref ChEMBL and BindingDB, read-out: Ki
[2] = library compounds (IDs A…, B…), values equal log10 of Ki in nM, ref ChEMBL and BindingDB
[3] = library compounds (IDs A…, B…) of Table S4, ref ChEMBL and BindingDB, read-out: Ki
[4] = observed Ki of library compounds (IDs A…, B…), ref ChEMBL and BindingDB, read-out: Ki
[5] = observed Ki of library compounds (IDs A..., B...), ref ChEMBL, BindingDB, read-out: Ki
[6] = library compounds (IDs A..., B...), values equal log10 of Ki in nM, ref ChEMBL, BindingDB
[7] = experimental pKi towards CA IX, library compounds, ref ChEMB database (ID A), BindingDB (ID B)
[8] = observed Ki towards CA IX, library compounds, ref ChEMB database (ID A), BindingDB (ID B), read-out: Ki

| Compound | log10 of Ki in nM | Ki (read-out: Ki) [nM] | log10 of Ki in nM [2] | also measured |
| --- | --- | --- | --- | --- |
| Cc1ccc(-c2nn(-c3ccc(S(N)(=O)=O)cc3)cc2/C=N/Nc2nc(-c3cc4cc(Cl)ccc4oc3=O)cs2)cc1 [B0318] | 1.380 | 24 | – | – |
| CC(C)OS(N)(=O)=O [A2163] | – | 1000 | – | – |
| COc1ccc(-c2nn(-c3ccc(S(N)(=O)=O)cc3)cc2/C=N/Nc2nc(-c3cc4cc(Br)ccc4oc3=O)cs2)cc1 [B0286] | – | – | 1.301 | Ki [1]: 20 nM |
| CC(=O)OC[C@@H]1O[C@@H](SCc2cn(-c3ccc(S(N)(=O)=O)cc3)nn2)[C@H](OC(C)=O)[C@@H](OC(C)=O)[C@@H]1OC(C)=O [B0180] | 0.934 | 8.6 | – | – |
| CC/C(=N/Nc1ccc([N+](=O)[O-])cc1)Sc1cc(Cl)c(C)cc1S(N)(=O)=O [A2453] | – | – | 4.000 | Ki [1]: 10000 nM |
| CC1(C)O[C@H]2[C@H](CO[C@]3(CNC(=S)Nc4ccc(S(N)(=O)=O)cc4)OC(C)(C)O[C@H]23)O1 [B0536] | 1.914 | 82 | – | – |
| Cc1ccc2nc(S)n(-c3ccc(S(N)(=O)=O)cc3)c(=O)c2c1 [B0260] | – | – | 1.204 | Ki [3]: 16 nM |
| CC1=CC(c2ccccc2)C=C(C)N1CCc1ccc(S(N)(=O)=O)cc1 [B0111] | – | – | 0.778 | Ki [4]: 6 nM |
| CCO[C@H]1Oc2ccccc2C(=O)[C@@H]1/C=N\c1ccc(S(=O)(=O)Nc2nccs2)cc1 [B0283] | – | – | 1.301 | Ki [3]: 20 nM |
| COc1ccc(/C=C\C(=O)C[C@H]2O[C@H](COC(C)=O)[C@@H](OC(C)=O)[C@@H](OC(C)=O)[C@@H]2OC(C)=O)cc1OC [B0756] | – | – | 2.877 | Ki [1]: 753 nM |
| NS(=O)(=O)c1ccc(-c2cn([C@@H]3O[C@@H](CO)[C@H](O)[C@@H]3O)nn2)cc1 [B0623] | 2.083 | 121 | – | – |
| CCCN(CCC)S(=O)(=O)c1ccc(C(=O)N[C@H](CO)C(N)=O)cc1 [B0020] | 0.415 | 2.6 | – | – |
| NS(=O)(=O)c1ccc([C@H]2c3ccc(O)cc3CCN2S(N)(=O)=O)cc1 [A0504, reference compound] | 0.898 | 7.9 | – | – |
| NS(=O)(=O)c1ccc(NC2=NC(=O)/C(=C\c3coc4ccccc4c3=O)S2)cc1 [B0247] | – | – | 1.146 | Ki [1]: 14 nM |
| CCOc1ccc(S(=O)(=O)NCCO)cc1-c1nnc2c(n1)c(C)nn2-c1ccc(C)cc1 [B0321] | – | – | – | Ki [5]: 25 nM |
| C[C@]12CC[C@H]3[C@@H]([C@H]1CCC2=O)[C@@H](O)C=C1C[C@@H](OS(N)(=O)=O)CC[C@]13C [B0490] | 1.813 | – | – | Ki: 65 nM |
| CCOc1ccc2c(c1)CCN(S(N)(=O)=O)[C@H]2c1ccc(S(N)(=O)=O)cc1 [A1289] | 1.717 | 52.1 | – | – |
| NS(=O)(=O)c1ccc(N[C@H]2SC[C@H](c3ccc(F)cc3F)N2C2CCCCC2)cc1 [B0547] | – | – | 1.934 | Ki [4]: 86 nM |
| NS(=O)(=O)c1ccc(OC2=NON(O)[C@@H]2S(=O)(=O)c2ccccc2)cc1 [A0390] | – | – | 0.806 | Ki [1]: 6.4 nM |
| N#C/C(=C/C=C\c1ccccc1)C(=O)Nc1ccc(S(N)(=O)=O)cc1 [B0085] | – | – | – | log10 of Ki in nM [6]: 0.690; Ki [5]: 4.9 nM |

| Compound | log10 of Ki in nM | Ki (read-out: Ki) [nM] | log10 of Ki in nM [2] | also measured |
| --- | --- | --- | --- | --- |
| O=C(Cc1ccccc1Br)Oc1ccc2c(c1)OS(=O)(=O)CC2 [A2452] | – | – | – | log10 of Ki in nM [7]: 4.000; Ki [8]: 10000 nM |
| Cc1cc(=O)oc2cc(O[C@H]3O[C@@H](C)[C@H](O)[C@H](O)[C@H]3O)ccc12 [B0671] | 2.303 | 201 | – | – |
| CC1C=C(C(C)C)N(Cc2ccc(S(N)(=O)=O)cc2)C(C(C)C)=C1 [B0461] | – | – | 1.732 | Ki [1]: 54 nM |
| CC(=O)OC[C@@H]1O[C@@H](NS(N)(=O)=O)CC[C@H]1OC(C)=O [B0190] | – | – | 0.954 | Ki [4]: 9 nM |
| Cc1cc(S(N)(=O)=O)c(S/C(=N\Nc2ccc([N+](=O)[O-])cc2)c2ccccc2)cc1Cl [A2454] | – | – | 4.000 | Ki [3]: 10000 nM |
| Cn1nc(S(N)(=O)=O)s/c1=N/C(=O)c1c(F)c(F)cc(F)c1F [B0221] | 1.021 | 10.5 | – | – |
| CC1=CC(C)C=C(C)N1CCc1ccccc1C [B0765] | – | – | 2.919 | Ki [4]: 830 nM |
| CC(=O)OC[C@@H]1O[C@H](O[C@@H]2[C@@H](OC(C)=O)[C@H](OC(C)=O)[C@H](n3cc(COC(=O)c4ccc(S(N)(=O)=O)cc4)nn3)O[C@@H]2COC(C)=O)[C@H](OC(C)=O)[C@H](OC(C)=O)[C@H]1OC(C)=O [B0633] | 2.114 | 130 | – | – |
| NS(=O)(=O)c1ccc(CCNS(=O)(=O)[C@@H]2O[C@@H](C(=O)O)[C@@H](O)[C@@H](O)[C@@H]2O)cc1 [B0584] | – | – | 1.982 | Ki [3]: 96 nM |
| CC1(C)O[C@H]2[C@H](CO[C@]3(CNC(=S)Nc4ccc(S(N)(=O)=O)cc4F)OC(C)(C)O[C@H]23)O1 [B0608] | 2.041 | 110 | – | – |
| CC1=CC(C)C=C(C)N1CCc1ccccc1-c1ccccc1 [B0751] | – | – | 2.851 | Ki [3]: 710 nM |
| NS(=O)(=O)c1ccc(CCN2C(c3ccccc3)=CCC=C2c2ccccc2)cc1 [B0533] | – | – | – | log10 of Ki in nM [7]: 1.908; Ki [8]: 81 nM |
| CC(=O)OC[C@H]1O[C@@H](n2cc(-c3ccc(S(N)(=O)=O)cc3)nn2)[C@@H](OC(C)=O)[C@@H](OC(C)=O)[C@@H]1OC(C)=O [B0096] | 0.699 | 5 | – | – |
| CN1N[C@@H](S(N)(=O)=O)S[C@H]1NC(=O)c1c(F)c(F)c(F)c(F)c1F [B0350] | – | – | – | log10 of Ki in nM [6]: 1.462; Ki [5]: 29 nM |
| CCCN(CCC)S(=O)(=O)c1ccc(C(=O)N[C@H](CO)C(=O)O)cc1 [B0340] | – | – | – | log10 of Ki in nM [7]: 1.431; Ki [8]: 27 nM |
| CC1(C)CC(NC(=S)Nc2ccc(S(N)(=O)=O)cc2)CC(C)(C)N1O [A1198] | – | – | 1.613 | Ki [1]: 41 nM |
| CC1=C[C@H](c2ccccc2)C=C(c2ccccc2)N1c1ccc(S(=O)(=O)Nc2nnc(S(N)(=O)=O)s2)cc1 [B0314] | – | – | 1.380 | Ki [4]: 24 nM |
| C[C@H](Nc1nc(NCc2ccc(S(N)(=O)=O)cc2)nc(N[C@@H](C)C(=O)O)n1)C(=O)O [B0173] | 0.929 | 8.5 | – | – |
| CC(=O)OC[C@@H]1O[C@H](NS(=O)(=O)NO)C=C[C@H]1OC(C)=O [B0526] | 1.898 | 79 | – | – |
| CCCN(CCC)S(=O)(=O)c1ccc(C(=O)N[C@H](CS)C(N)=O)cc1 [B0344] | – | – | 1.447 | Ki [3]: 28 nM |

| Compound | log10 of Ki in nM | Ki (read-out: Ki) [nM] | log10 of Ki in nM [2] | also measured |
| --- | --- | --- | --- | --- |
| CC1=C[C@@H](C)C(C)=C(C)N1Cc1ccc(S(N)(=O)=O)cc1 [B0397] | – | – | 1.544 | Ki [4]: 35 nM |
| NS(=O)(=O)c1ccc(N2C(=O)CS[C@@H]2c2cccc(F)c2)cc1 [A1295] | – | – | 1.725 | Ki [1]: 53.1 nM |
| NS(=O)(=O)c1cc(-c2nnc(-c3ccccc3)s2)c(Cl)cc1Cl [B0246] | – | – | 1.146 | Ki [1]: 14 nM |
| NS(=O)(=O)c1ccc(CC/N=C\c2ccc(-c3ccccn3)cc2)cc1 [A1025] | – | – | – | log10 of Ki in nM [7]: 1.446; Ki [8]: 27.9 nM |
| COc1ccc2c(c1)CCN(S(N)(=O)=O)[C@H]2c1ccc(N)cc1 [A0718] | – | – | 1.079 | Ki [3]: 12 nM |
| COc1cc(/C=C\C(=O)OCCCCO[N+](=O)[O-])ccc1OC(=O)c1ccc(S(N)(=O)=O)cc1 [B0225] | 1.041 | 11 | – | – |
| CCCN(CCC)S(=O)(=O)c1ccc(C(=O)N[C@H](C)C(N)=O)cc1 [B0254, reference compound] | – | – | – | Ki (CA IX, library ligands, ref ChEMBL[43] and BindingDB[44], read-out: Ki): 15 nM; log10 of Ki in nM (CA IX, observed value, equals log of Ki in nM, ref ChEMBL[43] and BindingDB[44]): 1.176 |
| NS(=O)(=O)c1ccc(-n2cc(CO[C@H]3O[C@H](CO)[C@H](O[C@H]4O[C@H](CO)[C@@H](O)[C@@H](O)[C@H]4O)[C@@H](O)[C@@H]3O)nn2)cc1 [B0542] | 1.924 | 84 | – | – |
| COc1ccc2c(c1)CCN(S(N)(=O)=O)[C@H]2c1ccc(C#N)cc1 [A0427] | – | – | 0.845 | Ki [3]: 7 nM |
| NS(=O)(=O)c1ccc([C@H]2C(Oc3ccccc3)=NON2O)cc1 [A1359] | – | – | 1.806 | Ki [1]: 63.9 nM |
| CC(=O)OC[C@@H]1O[C@@H](SCc2nnn(-c3ccc(S(N)(=O)=O)cc3)c2I)[C@H](OC(C)=O)[C@@H](OC(C)=O)[C@@H]1OC(C)=O [B0581] | – | – | – | log10 of Ki in nM [7]: 1.978; Ki [8]: 95 nM |
| COc1ccc2c(c1)CCN[C@H]2c1ccc(S(N)(=O)=O)cc1 [A0785] | 1.188 | 15.4 | – | – |
| Cc1cc(C)o/c(=N\O)c1 [B0259] | – | – | – | log10 of Ki in nM [6]: 1.204; Ki [5]: 16 nM |
| CC(=O)CN1C(=O)C=C(C)OS1(=O)=O [A2477] | – | – | 4.301 | Ki [1]: 20000 nM |
| NS(=O)(=O)c1ccc(-n2cc(CS(=O)(=O)[C@@H]3O[C@@H](CO)[C@H](O)[C@@H](O)[C@H]3O)nn2)cc1 [B0162] | 0.908 | 8.1 | – | – |
| CC(=O)Nc1ccc(S(=O)(=O)NC[C@H](C)F)cc1 [B0810] | – | – | – | log10 of Ki in nM [7]: 3.643; Ki [8]: 4400 nM |
| COc1cc2c(cc1OC)[C@@H](c1ccc([N+](=O)[O-])cc1)N(S(N)(=O)=O)CC2 [B0740] | – | – | 2.681 | Ki [4]: 480 nM |
| NS(=O)(=O)c1ccc(N[C@H]2SC[C@@H](c3ccc([N+](=O)[O-])cc3)N2C2CCCCC2)cc1 [B0353] | – | – | 1.462 | Ki [3]: 29 nM |
| CC(=O)N1N=C(c2ccc(C)cc2)C[C@H]1c1c(C)nn(-c2ccc(S(N)(=O)=O)cc2)c1Cl [A1383] | – | – | 1.827 | Ki [1]: 67.1 nM |
